{"source": "patent US11492405B2", "about": "“Reducing systemic regulatory t cell levels or activity for treatment of disease and injury of the CNS” (Yeda Research and Development Co. Ltd, priority 2014, dated 2022)", "key": {"5XFAD AD-Tg mice [1]": {"test_system": "5XFAD AD-Tg mice", "experiment": "Aβ plaque quantitation (immunohistochemistry) in 5XFAD AD-Tg mice", "format": "in vivo, mouse", "experimental": "Tissue processing and immunohistochemistry were performed on paraffin embedded sectioned mouse (6 μm thick) and human (10 μm thick) brains. For human ICAM-1 staining, primary mouse anti-ICAM (1:20 Abcam; ab2213) antibody was used. Slides were incubated for 10 min with 3% H2O2, and a secondary biotin-conjugated anti-mouse antibody was used, followed by biotin/avidin amplification with Vectastain ABC kit (Vector Laboratories). Subsequently, 3,3′-diaminobenzidine (DAB substrate) (Zytomed kit) was applied; slides were dehydrated and mounted with xylene-based mounting solution. For tissue stainings, mice were transcardially perfused with PBS prior to tissue excision and fixation. CP tissues were isolated under a dissecting microscope (Stemi DV4; Zeiss) from the lateral, third, and fourth ventricles of the brain. For whole mount CP staining, tissues were fixated with 2.5% paraformaldehyde (PFA) for 1 hour at 4° C., and subsequently transferred to PBS containing 0.05% sodium azide. Prior to staining, the dissected tissues were washed with PBS and blocked (20% horse serum, 0.3% Triton X-100, and PBS) for 1 h at room temperature. Whole mount staining with primary antibodies (in PBS containing 2% horse serum and 0.3% Triton X-100), or secondary antibodies, was performed for 1 h at room temperature. Each step was followed by three washes in PBS. The tissues were applied to slides, mounted with Immu-mount (9990402, from Thermo Scientific), and sealed with cover-slips. For staining of sectioned brains, two different tissue preparation protocols (paraffin embedded or microtomed free-floating sections) were applied, as previously described (Baruch et al, 2013; Kunis et al, 2013). […] Microscopic analysis, was performed using a fluorescence microscope (E800; Nikon) or laser-scanning confocal microscope (Carl Zeiss, Inc.). The fluorescence microscope was equipped with a digital camera (DXM 1200F; Nikon), and with either a 20×NA 0.50 or 40×NA 0.75 objective lens (Plan Fluor; Nikon). […] For quantification of staining intensity, total cell and background staining was measured using ImageJ software (NIH), and intensity of specific staining was calculated, as previously described (Burgess et al, 2010). […]\nFrom each brain, 6 μm coronal slices were collected, and eight sections per mouse, from four different pre-determined depths throughout the region of interest (dentate gyrus or cerebral cortex) were immunostained. […]"}, "5XFAD AD-Tg mice [2]": {"test_system": "5XFAD AD-Tg mice", "experiment": "Soluble Aβ (sAβ) ELISA of cerebral brain parenchyma in AD-Tg mice", "format": "in vivo, mouse", "experimental": "Inhibition of p300 in mice was performed similarly to previously described (Liu et al, 2013). p300i (C646; Tocris Bioscience) was dissolved in DMSO and injected i.p. daily (8.9 mg kg^−1 d^−1, i.p.) for 1 week. Vehicle-treated mice were similarly injected with DMSO.\nTissue homogenization and sAβ protein extraction was performed as previously described (Schmidt et al, 2005). Briefly, cerebral brain parenchyma was dissected and snap-frozen and kept at −80° C. until homogenization. Proteins were sequentially extracted from samples to obtain separate fractions containing proteins of differing solubility. Samples were homogenized in 10 volumes of ice-cold tissue homogenization buffer, containing 250 mM of sucrose, 20 mM of Tris base, 1 mM of ethylenediaminetetraacetic acid (EDTA), and 1 mM of ethylene glycol tetraacetic acid (pH 7.4), using a ground glass pestle in a Dounce homogenizer. After six strokes, the homogenate was mixed 1:1 with 0.4% diethylamine (DEA) in a 100-mM NaCl solution before an additional six strokes, and then centrifuged at 135,000 g at 4° C. for 45 min. The supernatant (DEA-soluble fraction containing extracellular and cytosolic proteins) was collected and neutralized with 10% of 0.5M of Tris-HCl (pH 6.8). Aβ1-40 and Aβ1-42 were individually measured by enzyme-linked immunosorbent assay (ELISA) from the soluble fraction using commercially available kits (Biolegend; #SIG-38954 and #SIG-38956, respectively) according to the manufacturer instructions."}, "aged mice (18 months)": {"test_system": "aged mice (18 months)", "experiment": "p300 inhibition in aged mice, flow cytometry of spleen and CP", "format": "in vivo, mouse", "settings": "p300i 8.9 mg/kg/d i.p. for 1 week vs DMSO, examined a day after cessation", "experimental": "Mice were transcardially perfused with PBS, and tissues were treated as previously described (Baruch et al, 2013). Brains were dissected and the different brain regions were removed under a dissecting microscope (Stemi DV4; Zeiss) in PBS, and tissues were dissociated using the gentleMACS™ dissociator (Miltenyi Biotec). Choroid plexus tissues were isolated from the lateral, third and fourth ventricles of the brain, incubated at 37° C. for 45 min in PBS (with Ca^2+/Mg^2+) containing 400 U/ml collagenase type IV (Worthington Biochemical Corporation), and then manually homogenized by pipetting. Spleens were mashed with the plunger of a syringe and treated with ACK (ammonium chloride potassium) lysing buffer to remove erythrocytes. In all cases, samples were stained according to the manufacturers' protocols. All samples were filtered through a 70 μm nylon mesh, and blocked with anti-Fc CD16/32 (1:100; BD Biosciences). For intracellular staining of IFN-γ, the cells were incubated with […] (10 ng/ml; Sigma-Aldrich) and ionomycin (250 ng/ml; Sigma-Aldrich) for 6 h, and Brefeldin-A (10 μg/ml; Sigma-Aldrich) was added for the last 4 h. Intracellular labeling of cytokines was done with BD Cytofix/Cytoperm™ Plus fixation/permeabilization kit (cat. no. 555028). […] Cells were analyzed on an LSRII cytometer (BD Biosciences) using FlowJo software. […]"}, "p300": {"molecular_target": "p300 (Mus musculus, UniProt B2RWS6)", "sequence (B2RWS6 whole entry)": "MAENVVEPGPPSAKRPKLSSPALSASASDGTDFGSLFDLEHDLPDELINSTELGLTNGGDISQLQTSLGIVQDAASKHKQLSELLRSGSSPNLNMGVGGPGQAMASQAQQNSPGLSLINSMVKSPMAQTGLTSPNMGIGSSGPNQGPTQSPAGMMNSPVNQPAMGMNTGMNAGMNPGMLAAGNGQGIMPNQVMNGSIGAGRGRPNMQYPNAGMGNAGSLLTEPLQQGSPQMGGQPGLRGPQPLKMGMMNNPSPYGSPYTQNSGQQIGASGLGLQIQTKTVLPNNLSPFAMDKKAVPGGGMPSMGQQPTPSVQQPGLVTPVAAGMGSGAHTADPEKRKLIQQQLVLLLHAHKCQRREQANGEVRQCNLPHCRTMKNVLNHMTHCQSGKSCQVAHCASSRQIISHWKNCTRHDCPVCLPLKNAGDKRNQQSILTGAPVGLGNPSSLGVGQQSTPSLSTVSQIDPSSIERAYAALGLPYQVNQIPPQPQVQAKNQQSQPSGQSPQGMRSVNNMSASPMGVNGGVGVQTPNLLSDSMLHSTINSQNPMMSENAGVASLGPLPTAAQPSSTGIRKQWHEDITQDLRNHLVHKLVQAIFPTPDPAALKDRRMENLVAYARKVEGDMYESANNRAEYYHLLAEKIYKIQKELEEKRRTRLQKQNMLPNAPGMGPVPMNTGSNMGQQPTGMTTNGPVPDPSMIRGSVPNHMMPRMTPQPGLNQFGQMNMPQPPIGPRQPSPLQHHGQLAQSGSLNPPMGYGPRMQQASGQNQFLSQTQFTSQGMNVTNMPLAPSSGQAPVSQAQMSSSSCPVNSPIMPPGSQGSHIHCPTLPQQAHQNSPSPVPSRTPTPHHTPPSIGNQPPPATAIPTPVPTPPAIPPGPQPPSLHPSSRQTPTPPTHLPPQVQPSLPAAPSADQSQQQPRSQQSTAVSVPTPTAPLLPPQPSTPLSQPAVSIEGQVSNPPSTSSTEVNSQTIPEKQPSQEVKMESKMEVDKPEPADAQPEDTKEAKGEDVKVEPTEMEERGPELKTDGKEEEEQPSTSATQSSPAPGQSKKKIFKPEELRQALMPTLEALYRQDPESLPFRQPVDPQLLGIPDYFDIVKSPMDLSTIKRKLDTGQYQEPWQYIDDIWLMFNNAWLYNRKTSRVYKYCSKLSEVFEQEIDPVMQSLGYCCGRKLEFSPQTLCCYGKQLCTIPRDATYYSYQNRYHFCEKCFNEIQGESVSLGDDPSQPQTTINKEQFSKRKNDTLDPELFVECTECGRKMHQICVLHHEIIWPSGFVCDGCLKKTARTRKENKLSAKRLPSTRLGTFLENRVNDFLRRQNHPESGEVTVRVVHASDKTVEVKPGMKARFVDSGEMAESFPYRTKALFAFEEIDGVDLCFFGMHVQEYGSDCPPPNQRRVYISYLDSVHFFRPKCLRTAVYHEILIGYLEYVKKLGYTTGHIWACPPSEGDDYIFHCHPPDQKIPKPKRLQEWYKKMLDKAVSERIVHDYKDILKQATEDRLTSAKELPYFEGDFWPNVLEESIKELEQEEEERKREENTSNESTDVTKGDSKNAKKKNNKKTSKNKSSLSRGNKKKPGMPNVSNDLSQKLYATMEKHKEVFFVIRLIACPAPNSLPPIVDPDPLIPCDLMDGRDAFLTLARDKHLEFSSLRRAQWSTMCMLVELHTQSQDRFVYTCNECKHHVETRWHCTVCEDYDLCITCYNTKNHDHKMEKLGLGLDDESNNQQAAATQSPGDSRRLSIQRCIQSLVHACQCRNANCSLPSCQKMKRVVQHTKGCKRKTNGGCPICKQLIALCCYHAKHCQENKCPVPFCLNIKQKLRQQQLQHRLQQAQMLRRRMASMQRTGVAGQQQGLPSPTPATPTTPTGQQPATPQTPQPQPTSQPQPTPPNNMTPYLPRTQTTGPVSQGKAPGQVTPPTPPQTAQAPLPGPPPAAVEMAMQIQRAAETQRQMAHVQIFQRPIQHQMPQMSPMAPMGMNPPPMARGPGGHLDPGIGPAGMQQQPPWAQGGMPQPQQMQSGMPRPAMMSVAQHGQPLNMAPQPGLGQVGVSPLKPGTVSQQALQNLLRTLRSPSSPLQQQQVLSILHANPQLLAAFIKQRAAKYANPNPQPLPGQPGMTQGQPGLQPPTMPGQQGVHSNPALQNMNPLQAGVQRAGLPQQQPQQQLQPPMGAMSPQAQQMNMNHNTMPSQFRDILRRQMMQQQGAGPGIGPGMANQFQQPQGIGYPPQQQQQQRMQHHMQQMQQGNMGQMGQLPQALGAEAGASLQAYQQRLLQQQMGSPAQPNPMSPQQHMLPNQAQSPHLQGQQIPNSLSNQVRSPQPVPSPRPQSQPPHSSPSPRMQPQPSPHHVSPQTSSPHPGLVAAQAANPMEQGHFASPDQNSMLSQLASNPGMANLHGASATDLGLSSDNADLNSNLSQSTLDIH", "settings": "Liu et al, 2013; cited from earlier work"}}, "note": "Entries after “also recorded” stand apart in the source; their conditions may differ."}
{"molecule": "CC1=NN(c2ccc(C(=O)O)cc2)C(=O)/C1=C\\c1ccc(-c2cc(C)c(C)cc2[N+](=O)[O-])o1", "note": "[p300i, 4-(4-((5-(4,5-dimethyl-2-nitrophenyl)furan-2-yl)methylene)-3-methyl-5-oxo-4,5-dihydro-1H-pyrazol-1-yl)benzoic acid]", "values": [{"measurement": "cerebral Aβ plaque load", "setting": "5XFAD AD-Tg mice [1]; 10-month old AD-Tg mice, p300i for 1 week, examined 3 weeks later", "value": "significant reduction"}, {"measurement": "reduction of cerebral plaque load", "setting": "5XFAD AD-Tg mice [1]; single course of p300i, examined 2 months later", "value": "evident even two months after a single course of treatment"}, {"measurement": "reduction of cerebral plaque load", "setting": "5XFAD AD-Tg mice [1]; two courses of p300i with 1-month interval, compared with single course", "value": "stronger"}, {"measurement": "cerebral sAβ (Aβ1-40/Aβ1-42) levels", "setting": "5XFAD AD-Tg mice [2]; one course of p300i", "value": "effective in reducing cerebral sAβ"}, {"measurement": "effect on sAβ1-42", "setting": "5XFAD AD-Tg mice [2]; repeated courses of p300i compared with one course", "value": "stronger"}, {"measurement": "cerebral sAβ (Aβ1-40/Aβ1-42) levels", "setting": "5XFAD AD-Tg mice [2]; two courses of p300i with interval of 1 month", "value": "effective in reducing cerebral sAβ"}, {"measurement": "IFN-γ-expressing cells in the CP", "setting": "aged mice (18 months)", "value": "elevated levels; also recorded: elevation"}, {"measurement": "IFN-γ-expressing cells in the spleen", "setting": "aged mice (18 months)", "value": "elevated levels; also recorded: elevation"}, {"measurement": "effect on Treg suppressive activities", "setting": "p300", "value": "affect Treg suppressive activities while leaving protective T effector cell responses intact"}]}
